Measurements from patent US4401812A, “Anthracycline antibiotics” (Hoffmann-La Roche Inc., priority 1980, dated 1983).
Converted amounts (≈) assume the structure as drawn. Read-outs that look alike come from different tables or passages of the source.

Tests used:
in vivo = settings: mouse, ip, mice, single i.p. injection, judged 72 hours after, read-out: acute intraperitoneal LD50
Method: The acute intraperitoneal LD50 in mice judged 72 hours after a single injection of the antibiotics is about 90 mg/kg for auramycin C, auramycin D, sulfurmycin C and sulfurmycin D, 40~80 mg/kg for auramycin G and sulfurmycin G and 20~40 mg/kg for auramycin E and sulfurmycin E.

P388 leukaemia = experiment: Antitumor effect against P388 leukaemia in CDF1 mice; format: in vivo; settings: Mus musculus, read-out: Mean survival (T/C, %); for response vs control in vivo at 3.75 mg/kg: 3.75 mg/kg/day i.p.; for response vs control in vivo at 7.5 mg/kg: 7.5 mg/kg/day i.p.; for response vs control in vivo at 15 mg/kg: 15.0 mg/kg/day i.p.
Method: The anthracycline glycosides provided by the present invention were tested against P388 leukaemia in mice. When CDF1 mice are inoculated with 1×10^6 cells of P388 intraperitoneally and each of the antibiotics is administered intraperitoneally on days 1, 5 and 9, the survival time of the treated mice is prolonged as shown in Table 5 hereinafter.

[1] = test system: Candida albicans ATCC-10231; experiment: in vitro MIC, agar streak method; format: cell-based
Source text: (§1) | ^(2) Sabouraud dextrose agar

[2] = test system: Candida tropicalis ATCC-13803; experiment: in vitro MIC, agar streak method; format: cell-based
Source text: as §1

Sarcina lutea IAM1009 = experiment: in vitro MIC, agar streak method; format: cell-based; settings: Heart infusion agar
[3] = test system: Staphylococcus aureus 209P IAM-1011; experiment: in vitro MIC, agar streak method; format: cell-based; settings: Heart infusion agar
[4] = test system: Bacillus subtilis IAM-1027; experiment: in vitro MIC, agar streak method; format: cell-based
Source text: (§2) | ^(1) Heart infusion agar

[5] = test system: Pseudomonas aeruginosa IFO-12689; experiment: in vitro MIC, agar streak method; format: cell-based; settings: IFO12689, Heart infusion agar
Source text: as §2

[6] = test system: Escherichia coli K-12 IAM-1264; experiment: in vitro MIC, agar streak method; format: cell-based
Source text: as §2

[7] = test system: Staphylococcus aureus 209P Stf; experiment: in vitro MIC, agar streak method; format: cell-based; settings: Heart infusion agar
Source text: as §2

[8] = test system: Micrococcus flavus ATCC-10240; experiment: in vitro MIC, agar streak method; format: cell-based
Source text: as §2

[9] = test system: Escherichia coli NIHJ IFO-12734; experiment: in vitro MIC, agar streak method; format: cell-based
Source text: as §2

[10] = test system: Mycobacterium smegmatis IFO-13167; experiment: in vitro MIC, agar streak method; format: cell-based; settings: Mycolicibacterium smegmatis, IFO13167
Source text: as §2

[11] = test system: Staphylococcus epidermidis IFO-12993; experiment: in vitro MIC, agar streak method; format: cell-based; settings: Heart infusion agar
Source text: as §2

Bacillus cereus Rol79B = experiment: in vitro MIC, agar streak method; format: cell-based; settings: Heart infusion agar
Source text: as §2

[12] = ip, days 1, 5 and 9, 1×10^6 P388 cells i.p., CDF1 mice
[13] = ATCC10231, Candida albicans ATCC-10231, Sabouraud dextrose agar, read-out: MIC
[14] = ATCC13803, Candida tropicalis ATCC-13803, Sabouraud dextrose agar, read-out: MIC
[15] = Micrococcus luteus, IAM1009, Sarcina lutea IAM-1009, read-out: MIC
[16] = IAM1027, Bacillus subtilis IAM-1027, Heart infusion agar, read-out: MIC
[17] = IAM1264, Escherichia coli K-12 IAM-1264, Heart infusion agar, read-out: MIC
[18] = ATCC10240, Micrococcus flavus ATCC-10240, Heart infusion agar, read-out: MIC
[19] = IFO12734, Escherichia coli NIHJ IFO-12734, Heart infusion agar, read-out: MIC
[20] = ip, 1.5 mg/kg/day i.p., days 1, 5 and 9, 1×10^6 P388 cells i.p., CDF1 mice
[21] = ip, 3.0 mg/kg/day i.p., days 1, 5 and 9, 1×10^6 P388 cells i.p., CDF1 mice
[22] = ip, 6.0 mg/kg/day i.p., days 1, 5 and 9, 1×10^6 P388 cells i.p., CDF1 mice
[23] = ip, 12.0 mg/kg/day i.p., days 1, 5 and 9, 1×10^6 P388 cells i.p., CDF1 mice
[24] = Staphylococcus aureus, read-out: MIC
[25] = Staphylococcus epidermidis, IFO12993, Staphylococcus epidermidis IFO-12993, read-out: MIC
[26] = Micrococcus flavus, ATCC10240, Micrococcus flavus ATCC-10240, Heart infusion agar, read-out: MIC
[27] = Candida albicans ATCC-10231, Sabouraud dextrose agar
[28] = Candida tropicalis ATCC-13803, Sabouraud dextrose agar
[29] = Bacillus subtilis IAM-1027, Heart infusion agar
[30] = Escherichia coli K-12 IAM-1264, Heart infusion agar
[31] = Staphylococcus epidermidis IFO-12993
[32] = Micrococcus flavus ATCC-10240, Heart infusion agar
[33] = Escherichia coli NIHJ IFO-12734, Heart infusion agar

Compound	LD50 at 72 h (in vivo) [mg/kg]	MIC [1, 13] [µg/mL]	MIC [2, 14] [µg/mL]	MIC (Sarcina lutea IAM1009; [15]) [µg/mL]	MIC ([3]; read-out: MIC) [µg/mL]	MIC [4, 16] [µg/mL]	MIC [6, 17] [µg/mL]	MIC [9, 19] [µg/mL]	response vs control in vivo at 1.5 mg/kg (P388 leukaemia; [20]) [%]	response vs control in vivo at 3 mg/kg (P388 leukaemia; [21]) [%]	response vs control in vivo at 6 mg/kg (P388 leukaemia; [22]) [%]	response vs control in vivo at 12 mg/kg (P388 leukaemia; [23]) [%]	MIC [3, 24] [µg/mL]	MIC (Bacillus cereus Rol79B; read-out: MIC) [µg/mL]	MIC [8, 26] [µg/mL]	MIC [11, 31] [µg/mL]	also measured
COC(=O)C1c2cc3c(c(O)c2C(OC2CC(N(C)C)C(OC4CC(O)C(O)C(C)O4)C(C)O2)CC1(C)O)C(=O)c1c(O)cccc1C3=O (stereo not shown) [Auramycin C]	~90	> 50	> 50	6.25 (≈ 9.11 µM)	6.25 (≈ 9.11 µM)	6.25 (≈ 9.11 µM)	> 50	> 50	–	–	–	–	–	–	–	–	response vs control in vivo at 1.88 mg/kg (P388 leukaemia; ip, 1.88 mg/kg/day i.p., days 1, 5 and 9, 1×10^6 P388 cells i.p., CDF1 mice): 135%; response vs control in vivo at 3.75 mg/kg (P388 leukaemia; [12]): 130%; response vs control in vivo at 7.5 mg/kg (P388 leukaemia; [12]): 141%; response vs control in vivo at 15 mg/kg (P388 leukaemia; [12]): 128%; MIC [5]: > 50 µg/mL; MIC [7]: 6.25 µg/mL (≈ 9.11 µM); MIC [8, 18]: 6.25 µg/mL (≈ 9.11 µM); MIC [10]: 6.25 µg/mL (≈ 9.11 µM)
COC(=O)C1c2cc3c(c(O)c2C(OC2CC(N(C)C)C(O)C(C)O2)CC1(C)O)C(=O)c1c(O)cccc1C3=O (stereo not shown) [Auramycin D]	~90	> 50	> 50	6.25 (≈ 11.2 µM)	12.5 (≈ 22.5 µM)	12.5 (≈ 22.5 µM)	> 50	> 50	–	–	–	–	–	–	–	–	response vs control in vivo at 3.75 mg/kg (P388 leukaemia; [12]): 103%; response vs control in vivo at 7.5 mg/kg (P388 leukaemia; [12]): 149%; response vs control in vivo at 15 mg/kg (P388 leukaemia; [12]): 141%; MIC [5]: > 50 µg/mL; MIC [7]: 12.5 µg/mL (≈ 22.5 µM); MIC [8, 18]: 12.5 µg/mL (≈ 22.5 µM); MIC ([10]; Mycobacterium smegmatis IFO-13167, Heart infusion agar, read-out: MIC): 3.13 µg/mL (≈ 5.63 µM)
COC(=O)C1c2cc3c(c(O)c2C(OC2CC(N(C)C)C(OC4CC(O)C(OC5CCC(O)C(C)O5)C(C)O4)C(C)O2)CC1(C)O)C(=O)c1c(O)cccc1C3=O (stereo not shown) [Auramycin E]	20 to 40	> 50	> 50	3.12 (≈ 3.9 µM)	–	3.12 (≈ 3.9 µM)	> 50	> 50	131	139	158	165	1.56 (≈ 1.95 µM)	0.39 (≈ 0.488 µM)	3.12 (≈ 3.9 µM)	–	MIC [11, 25]: 3.12 µg/mL (≈ 3.9 µM)
COC(=O)C1c2cc3c(c(O)c2C(OC2CC(N(C)C)C(OC4CC(O)C(OC5CCC(O)C(C)O5)C(C)O4)C(C)O2)CC1(C)O)C(=O)c1c(O)cccc1C3=O (stereo not shown) [Auramycin F]	–	–	–	–	–	–	–	–	–	–	–	–	–	–	–	3.12 (≈ 3.9 µM)	MIC [1, 27]: > 50 µg/mL; MIC [2, 28]: > 50 µg/mL; MIC (Sarcina lutea IAM1009; Sarcina lutea IAM-1009): 3.12 µg/mL (≈ 3.9 µM); MIC [3]: 3.12 µg/mL (≈ 3.9 µM); MIC [4, 29]: 3.12 µg/mL (≈ 3.9 µM); MIC [6, 30]: > 50 µg/mL; MIC (Bacillus cereus Rol79B): 0.39 µg/mL (≈ 0.488 µM); MIC [8, 32]: 3.12 µg/mL (≈ 3.9 µM); MIC [9, 33]: > 50 µg/mL
COC(=O)C1c2cc3c(c(O)c2C(OC2CC(N(C)C)C(OC4CCC(OC5CCC(O)C(C)O5)C(C)O4)C(C)O2)CC1(C)O)C(=O)c1c(O)cccc1C3=O (stereo not shown) [Auramycin G]	40 to 80	> 50	> 50	6.25 (≈ 7.97 µM)	–	12.5 (≈ 15.9 µM)	> 50	> 50	102	109	105	119	6.25 (≈ 7.97 µM)	0.78 (≈ 0.995 µM)	6.25 (≈ 7.97 µM)	–	MIC [11, 25]: 6.25 µg/mL (≈ 7.97 µM)
COC(=O)C1c2cc3c(c(O)c2C(OC2CC(N(C)C)C(OC4CC(O)C(OC5CCC(O)C(C)O5)C(C)O4)C(C)O2)CC1(O)CC(C)=O)C(=O)c1c(O)cccc1C3=O (stereo not shown) [Sulfurmycin E]	20 to 40	> 50	> 50	3.12 (≈ 3.71 µM)	–	3.12 (≈ 3.71 µM)	> 50	> 50	133	140	150	165	3.12 (≈ 3.71 µM)	0.39 (≈ 0.463 µM)	3.12 (≈ 3.71 µM)	1.56 (≈ 1.85 µM)	–
COC(=O)C1c2cc3c(c(O)c2C(OC2CC(N(C)C)C(OC4CC(O)C(OC5CCC(O)C(C)O5)C(C)O4)C(C)O2)CC1(O)CC(C)=O)C(=O)c1c(O)cccc1C3=O (stereo not shown) [Sulfurmycin F]	–	–	–	–	–	–	–	–	–	–	–	–	–	–	–	12.5 (≈ 14.8 µM)	MIC [1, 27]: > 50 µg/mL; MIC [2, 28]: > 50 µg/mL; MIC (Sarcina lutea IAM1009; Sarcina lutea IAM-1009): 1.56 µg/mL (≈ 1.85 µM); MIC [3]: 3.12 µg/mL (≈ 3.71 µM); MIC [4, 29]: 3.12 µg/mL (≈ 3.71 µM); MIC [6, 30]: > 50 µg/mL; MIC (Bacillus cereus Rol79B): 0.39 µg/mL (≈ 0.463 µM); MIC [8, 32]: 1.56 µg/mL (≈ 1.85 µM); MIC [9, 33]: > 50 µg/mL
COC(=O)C1c2cc3c(c(O)c2C(OC2CC(N(C)C)C(OC4CCC(OC5CCC(O)C(C)O5)C(C)O4)C(C)O2)CC1(O)CC(C)=O)C(=O)c1c(O)cccc1C3=O (stereo not shown) [Sulfurmycin G]	40 to 80	–	–	12.5 (≈ 15.1 µM)	6.25 (≈ 7.57 µM)	–	–	–	–	–	–	–	–	0.39 (≈ 0.472 µM)	–	–	response vs control in vivo at 1.5 mg/kg (P388 leukaemia; P388, ip): 104%; response vs control in vivo at 3 mg/kg (P388 leukaemia; P388, ip): 112%; response vs control in vivo at 6 mg/kg (P388 leukaemia; P388, ip): 113%; response vs control in vivo at 12 mg/kg (P388 leukaemia; P388, ip): 123%; response vs control in vivo at 24 mg/kg (P388 leukaemia; P388, ip): 144%; MIC ([1]; Candida albicans, ATCC10231): > 50 µg/mL; MIC ([2]; Candida tropicalis, ATCC13803): > 50 µg/mL; MIC ([4]; Bacillus subtilis, IAM1027): 6.25 µg/mL (≈ 7.57 µM); MIC ([6]; Escherichia coli, IAM1264): > 50 µg/mL; MIC ([11]; IFO12993, Staphylococcus epidermidis IFO-12993, read-out: MIC): 12.5 µg/mL (≈ 15.1 µM); MIC ([8]; Micrococcus flavus, ATCC10240): 12.5 µg/mL (≈ 15.1 µM); MIC ([9]; Escherichia coli, IFO12734): > 50 µg/mL
